Test results from patent US9528090B2, “Differentiation of human embryonic stem cells” (Janssen Biotech, Inc., priority 2010, dated 2016).

Tests used:
[1] = tested on: human embryonic stem cells line H1; assay: Definitive endoderm differentiation of H1 cells in FBS medium (GDF8/GSK3B inhibitor) with IGF or insulin: FACS and real-time PCR; type: cell-based; settings: in the presence of FBS, 10-100 ng/ml, day 4
Experimental: Cells of the human embryonic stem cells line H1 (p40-p52) were seeded as single cells at a density of 100000 cells/cm^2 on MATRIGEL® (1:30 dilution) (BD Biosciences; Cat #356231)-coated dishes in MEF-CM (mouse embryonic fibroblast conditioned media) supplemented with 16 ng/ml of FGF2 (Catalog#100-18B, PeproTech, NJ) and 10 μM of Y27632 (Rock inhibitor, Catalogue#Y0503, Sigma, Mo.). 72 hrs post seeding, cultures were differentiated into definitive endoderm (DE) as follows: • a. with MCDB-131 (Catalogue#10372-019, Invitrogen, CA) medium supplemented with 0.2% FBS (Catalogue#SH30070.03, Hyclone, UT), 0.0025 g/ml sodium bicarbonate (Catalogue #S3187, Sigma, Mo.), 1× GlutaMax™ (Catalogue #35050-079, Invitrogen, Ca) and 100 ng/ml GDF8 (Catalogue#120-00, PeproTech, NJ) plus 2.5 μM of the GSK3B inhibitor 14-Prop-2-en-1-yl-3,5,7,14,17,23,27-heptaazatetracyclo[19.3.1.1˜2,6˜0.1˜8,12˜]heptacosa-1(25),2(27),3,5,8(26),9,11,21,23-nonaen-16-one for one day, then • b. MCDB-131 medium supplemented with FBS, sodium bicarbonate, Glutamax, and 100 ng/ml GDF8 for an additional three days.
0.5% FBS was used for day 2 and 2% FBS was used for days 3-4. Besides regular FBS, heat treated FBS (Catalogue#F4135, Sigma, Mo.) and charcoal stripped treated FBS (Catalogue#F6765, Sigma, Mo.) were also tested. Some of the FBS treated cultures were also treated with various concentrations of IGF (10-100 ng/ml) or insulin (10-100 ng/ml).
At day 4, samples were collected for analysis by FACS and real-time PCR.

[2] = tested on: human embryonic stem cells line H1; assay: Definitive endoderm differentiation of H1 cells, single cell seeding (GDF8/GSK3B inhibitor): real-time PCR gene expression; type: cell-based
Experimental: Cells of the human embryonic stem cells line H1 (p40-p52) were seeded as single cells at a density of 100000 cells/cm^2 on MATRIGEL® (1:30 dilution) (BD Biosciences; Cat #356231)-coated dishes in MEF-CM (mouse embryonic fibroblast conditioned media) supplemented with 16 ng/ml of FGF2 (Catalog#100-18B, PeproTech, NJ) and 10 μM of Y27632 (Rock inhibitor, Catalogue#Y0503, Sigma, Mo.). 72 hrs post seeding, cultures were differentiated into definitive endoderm (DE) as follows: • a. MCDB-131 (Catalogue#10372-019, Invitrogen, CA) medium supplemented with 2% fatty acid-free BSA (Catalog#68700, Proliant, IA), 0.0025 g/ml sodium bicarbonate (Catalogue #S3187, Sigma, Mo.), 1× GlutaMax™ (Catalogue #35050-079, Invitrogen, Ca) and 100 ng/ml GDF8 (Catalogue#120-00, PeproTech, NJ) plus 2.5 μM of the GSK3B inhibitor 14-Prop-2-en-1-yl-3,5,7,14,17,23,27-heptaazatetracyclo [19.3.1.1˜2,6˜0.1˜8,12˜]heptacosa-1(25),2(27),3,5,8(26),9,11,21,23-nonaen-16-one for one day, then • b. MCDB-131 medium supplemented with 2% BSA, sodium bicarbonate, Glutamax, and 100 ng/ml GDF-8 for an additional three days.
In some of the cultures, the cells were treated with the following concentrations of IGF (Catalogue#AF100, PeproTech, NJ): 0, 1, 10, 50, or 200 ng/ml. As a control, instead of BSA, 0.2% FBS (Catalogue#SH30070.03, Hyclone, UT) was used for day 1 of differentiation, and 2% FBS was used for days 2-4. Some of the FBS treated cultures were also treated with various concentrations of IGF.
At day 4, samples were collected for FACS and gene expression analysis using real-time PCR.
Cultures treated with medium supplemented with FBS were much more sensitive to the inhibitory effect of IGF. […] These observations was further supported by immuno fluorescence (IF) staining for the DE marker SOX17 (Catalogue #AF 1924, R & D systems, MN) (FIGS. 8-9).

ES cells = settings: 25 ng/ml of IGF added to 2% FBS, MEF-CM, activin A; cited from earlier work
[3] = tested on: human embryonic stem cells line H1; assay: Definitive endoderm differentiation of H1 cells, single cell seeding (GDF8/GSK3B inhibitor, MCDB-131): FACS for CXCR4 and CD9; type: cell-based; settings: for % CXCR4 + CD9− / % CXCR4 − CD9+ / % CXCR4 − CD9−: day 4
Experimental: Cells of the human embryonic stem cells line H1 (p40-p52) were seeded as single cells at a density of 100000 cells/cm^2 on MATRIGEL® (1:30 dilution) (BD Biosciences; Cat #356231)-coated dishes in MEF-CM (mouse embryonic fibroblast conditioned media) supplemented with 16 ng/ml of FGF2 (Catalog#100-18B, PeproTech, NJ) and 10 μM of Y27632 (Rock inhibitor, Catalogue#Y0503, Sigma, Mo.). 72 hrs post seeding, cultures were differentiated into definitive endoderm (DE) as follows: • a. […] MCDB-131 medium supplemented with 2% BSA, sodium bicarbonate, Glutamax, and 100 ng/ml GDF-8 for an additional three days. In some of the cultures, the cells were treated with the following concentrations of IGF (Catalogue#AF100, PeproTech, NJ): 0, 1, 10, 50, or 200 ng/ml. As a control, instead of BSA, 0.2% FBS (Catalogue#SH30070.03, Hyclone, UT) was used for day 1 of differentiation, and 2% FBS was used for days 2-4. Some of the FBS treated cultures were also treated with various concentrations of IGF. At day 4, samples were collected for FACS and gene expression analysis using real-time PCR.

[4] = IGF 50-200 ng/ml, BSA treated cultures

## IGF
[1]
  expression of the pluripotency marker NANOG: upregulated
  markers associated with definitive endoderm such as SOX17 and CCXR4: dose dependently down regulated
[2]; 1-200 ng/ml of IGF, BSA treated cultures, versus no IGF
  expression of markers associated with definitive endoderm (FOXA2, SOX17, CER1, CXCR4): did not significantly affect
[2]; 50-200 ng/ml of IGF
  expression of the embryonic marker NANOG: did increase expression
[2]; FBS supplemented cultures, increasing IGF
  expression of SOX17, HNF3B and CXCR4: decreased with increasing concentration
ES cells
  decrease of the expression of SOX17: approximately 70%
[3]; BSA + 1 ng/ml IGF
  % CXCR4 + CD9−: 92%
  % CXCR4 − CD9+: 0.8%
  % CXCR4 − CD9−: 3%
[3]; BSA + 10 ng/ml IGF
  % CXCR4 + CD9−: 90%
  % CXCR4 − CD9+: 1.3%
  % CXCR4 − CD9−: 5.3%
[3]; BSA + 50 ng/ml IGF
  % CXCR4 + CD9−: 87%
  % CXCR4 − CD9+: 6%
  % CXCR4 − CD9−: 3.5%
[3]; BSA + 200 ng/ml IGF
  % CXCR4 + CD9−: 79%
  % CXCR4 − CD9+: 10%
  % CXCR4 − CD9−: 8%
[3]; FBS + 1 ng/ml IGF
  % CXCR4 + CD9−: 89%
  % CXCR4 − CD9+: 3%
  % CXCR4 − CD9−: 3.6%
[3]; FBS + 10 ng/ml IGF
  % CXCR4 + CD9−: 87%
  % CXCR4 − CD9+: 6.4%
  % CXCR4 − CD9−: 3.3%
[3]; FBS + 50 ng/ml IGF
  % CXCR4 + CD9−: 78%
  % CXCR4 − CD9+: 6.8%
  % CXCR4 − CD9−: 13.2%
[3]; FBS + 200 ng/ml IGF
  % CXCR4 + CD9−: 70%
  % CXCR4 − CD9+: 13.4%
  % CXCR4 − CD9−: 12.9%
[3]; [4]
  CXCR4+CD9− cells: drop in expression
  CXCR4−CD9+ fraction: increase in expression
[3]; increasing doses of IGF, FBS treated versus BSA treated cultures
  CXCr4+CD9− fraction: more significant drop
